Test results published in ChEMBL document CHEMBL1123242, “Derivatives of 1-(1,3-benzodioxol-5-yl)-2-butanamine: representatives of a novel therapeutic class” (1986).

Tests used:
Assay type in all cases: functional
Rattus norvegicus [1] = assay: Compound was tested for hallucinogenic activity in rats at the dose 0.17 mg/kg); Number of rats selecting the LSD lever/ number of rats responding (3/8)
Rattus norvegicus [2] = assay: Compound was tested for hallucinogenic activity in rats at 2.92 dose(mg/kg); Number of rats selecting the LSD lever/ number of rats responding (3/8)
Rattus norvegicus [3] = assay: Compound was tested for hallucinogenic activity in rats at dose 1.46 (mg/kg); Number of rats selecting the LSD lever/ number of rats responding (1/8)
Rattus norvegicus [4] = assay: Compound was tested for hallucinogenic activity in rats at 2.19 dose(mg/kg); Number of rats selecting the LSD lever/ number of rats responding (2/8)
Rattus norvegicus [5] = assay: Compound was tested for hallucinogenic activity in rats at 3.65 dose(mg/kg); 0/1, highest dose tested
Rattus norvegicus [6] = assay: Compound was tested for hallucinogenic activity in rats at 0.73(mg/kg); Number of rats selecting the LSD lever/ number of rats responding (1/8)
Rattus norvegicus [7] = assay: Compound was tested for hallucinogenic activity in rats at 2.56 dose(mg/kg); Number of rats selecting the LSD lever/ number of rats responding (2/8)
Rattus norvegicus [8] = assay: Compound was tested for hallucinogenic activity in rats at 1.83 dose (mg/kg); Number of rats selecting the LSD lever/ number of rats responding (1/8)
Rattus norvegicus [9] = assay: Compound was tested for hallucinogenic activity in rats at the dose 0.37(mg/kg); Number of rats selecting the LSD lever/ number of rats responding (1/8)
Rattus norvegicus [10] = assay: Compound was tested for hallucinogenic activity in rats at the dose 0.32(mg/kg); Number of rats selecting the LSD lever/ number of rats responding (2/8)
Rattus norvegicus [11] = assay: Compound was tested for hallucinogenic activity in rats at 0.63 dose(mg/kg); Number of rats selecting the LSD lever/ number of rats responding (2/8)
Rattus norvegicus [12] = assay: Compound was tested for hallucinogenic activity in rats at the dose 0.16(mg/kg); Number of rats selecting the LSD lever/ number of rats responding (1/8)
Rattus norvegicus [13] = assay: Compound was tested for hallucinogenic activity in rats at dose 1.29(mg/kg); Number of rats selecting the LSD lever/ number of rats responding (3/8)
Rattus norvegicus [14] = assay: Compound was tested for hallucinogenic activity in rats at 1.73 dose(mg/kg); 0/0, highest dose tested
Rattus norvegicus [15] = assay: Compound was tested for hallucinogenic activity in rats at 1.62 dose(mg/kg); Number of rats selecting the LSD lever/ number of rats responding (2/6)
Rattus norvegicus [16] = assay: Compound was tested for hallucinogenic activity in rats at the dose 0.17(mg/kg); Number of rats selecting the LSD lever/ number of rats responding (1/8)
Rattus norvegicus [17] = assay: Compound was tested for hallucinogenic activity in rats at 2.41 dose(mg/kg); Number of rats selecting the LSD lever/ number of rats responding (8/8)
Rattus norvegicus [18] = assay: Compound was tested for hallucinogenic activity in rats at the dose 1.38 (mg/kg)
Rattus norvegicus [19] = assay: Compound was tested for hallucinogenic activity in rats at 2.07 dose(mg/kg); Number of rats selecting the LSD lever/ number of rats responding (3/8)
Rattus norvegicus [20] = assay: Compound was tested for hallucinogenic activity in rats at 1.72 dose (mg/kg); Number of rats selecting the LSD lever/ number of rats responding (2/8)
Rattus norvegicus [21] = assay: Compound was tested for hallucinogenic activity in rats at 0.69 dose(mg/kg); Number of rats selecting the LSD lever/ number of rats responding (1/8)
Rattus norvegicus [22] = assay: Compound was tested for hallucinogenic activity in rats at the dose 0.34(mg/kg); Number of rats selecting the LSD lever/ number of rats responding (1/8)
Rattus norvegicus [23] = assay: Compound was tested for hallucinogenic activity in rats at dose 1.38 (mg/kg); Number of rats selecting the LSD lever/ number of rats responding (3/8)
Rattus norvegicus [24] = assay: Compound was tested for hallucinogenic activity in rats at the dose 0.17 (mg/kg)
Rattus norvegicus [25] = assay: Compound was tested for hallucinogenic activity in rats at the dose 0.16 (mg/kg)
Rattus norvegicus [26] = assay: Compound was tested for hallucinogenic activity in rats at 0.32 dose(mg/kg); Number of rats selecting the LSDlever/ number of rats responding (2/8)
Rattus norvegicus [27] = assay: Compound was tested for hallucinogenic activity in rats at the 0.63 dose(mg/kg); Number of rats selecting the LSDlever/ number of rats responding (2/8)
Rattus norvegicus [28] = assay: Compound was tested for hallucinogenic activity in rats at the 1.29 dose(mg/kg); Number of rats selecting the LSDlever/ number of rats responding (7/8)
Rattus norvegicus [29] = assay: Compound was tested for hallucinogenic activity in rats at 0.16 dose(mg/kg); Number of rats selecting the LSDlever/ number of rats responding (1/8)
Rattus norvegicus [30] = assay: Compound was tested for hallucinogenic activity in rats at 0.69 dose(mg/kg); Number of rats selecting the LSD lever/ number of rats responding (4/8)
Rattus norvegicus [31] = assay: Compound was tested for hallucinogenic activity in rats at dose 1.38(mg/kg); Number of rats selecting the LSD lever/ number of rats responding (4/8)
Rattus norvegicus [32] = assay: Compound was tested for hallucinogenic activity in rats at the dose 0.17(mg/kg); Number of rats selecting the LSD lever/ number of rats responding […])
Rattus norvegicus [33] = assay: Compound was tested for hallucinogenic activity in rats at 1.82 dose (mg/kg); 0/0, highest dose tested
Rattus norvegicus [34] = assay: Compound was tested for hallucinogenic activity in rats at the dose 0.34(mg/kg); Number of rats selecting the LSD lever/ number of rats responding (2/8)
Rattus norvegicus [35] = assay: Compound was tested for hallucinogenic activity in rats at dose 1.72 (mg/kg); Number of rats selecting the LSD lever/ number of rats responding (4/8)
Rattus norvegicus [36] = assay: Compound was tested for hallucinogenic activity in rats at 5.52 dose(mg/kg); 1/2, highest dose tested
Rattus norvegicus [37] = assay: Compound was tested for hallucinogenic activity in rats at 2.07 dose(mg/kg); Number of rats selecting the LSD lever/ number of rats responding (3/10)
Rattus norvegicus [38] = assay: Compound was tested for hallucinogenic activity in rats at dose 1.38 (mg/kg); 1/8
Rattus norvegicus [39] = assay: Compound was tested for hallucinogenic activity in rats at 2.41 dose(mg/kg); Number of rats selecting the LSD lever/ number of rats responding (3/8)
Rattus norvegicus [40] = assay: Compound was tested for hallucinogenic activity in rats at 0.69 dose(mg/kg); Number of rats selecting the LSD lever/ number of rats responding (0/8)
Rattus norvegicus [41] = assay: Compound was tested for hallucinogenic activity in rats at 2.76 dose(mg/kg); Number of rats selecting the LSD lever/ number of rats responding (4/8)
Rattus norvegicus [42] = assay: Compound was tested for hallucinogenic activity in rats at 3.45 dose (mg/kg); Number of rats selecting the LSD lever/ number of rats responding (3/8)
Rattus norvegicus [43] = assay: Compound was tested for hallucinogenic activity in rats at 1.72 dose (mg/kg); Number of rats selecting the LSD lever/ number of rats responding (2/9)
Rattus norvegicus [44] = assay: Compound was tested for hallucinogenic activity in rats at the dose 0.17(mg/kg); Number of rats selecting the LSD lever/ number of rats responding (2/8)
Rattus norvegicus [45] = assay: Compound was tested for hallucinogenic activity in rats at 4.14 dose (mg/kg); Number of rats selecting the LSD lever/ number of rats responding (2/8)

## CC[C@H](Cc1ccc2c(c1)OCO2)NC
Rattus norvegicus [1]
  Result: 3
Rattus norvegicus [2]
  Result: 3
Rattus norvegicus [3]
  Result: 1
Rattus norvegicus [4]
  Result: 2
Rattus norvegicus [5]
  Result: 0
Rattus norvegicus [6]
  Result: 1
Rattus norvegicus [7]
  Result: 2
Rattus norvegicus [8]
  Result: 1
Rattus norvegicus [9]
  Result: 1

## C[C@H](N)Cc1ccc2c(c1)OCO2
Rattus norvegicus [10]
  Result: 2
Rattus norvegicus [11]
  Result: 2
Rattus norvegicus [12]
  Result: 1
Rattus norvegicus [13]
  Result: 3
Rattus norvegicus [14]
  Result: 0
Rattus norvegicus [15]
  Result: 2

## CC[C@H](N)Cc1ccc2c(c1)OCO2
Rattus norvegicus [16]
  Result: 1
Rattus norvegicus [17]
  Result: 8
Rattus norvegicus [18]
  ED50: 1.38 mg/kg
Rattus norvegicus [19]
  Result: 3
Rattus norvegicus [20]
  Result: 2
Rattus norvegicus [21]
  Result: 1
Rattus norvegicus [22]
  Result: 1
Rattus norvegicus [23]
  Result: 3
Rattus norvegicus [24]
  ED50: 6 µmol/kg

## C[C@@H](N)Cc1ccc2c(c1)OCO2
Rattus norvegicus [25]
  ED50: 2.94 µmol/kg
Rattus norvegicus [26]
  Result: 2
Rattus norvegicus [27]
  Result: 2
Rattus norvegicus [28]
  Result: 7
Rattus norvegicus [29]
  Result: 1

## CN[C@@H](C)Cc1ccc2c(c1)OCO2
Rattus norvegicus [30]
  Result: 4
Rattus norvegicus [31]
  Result: 4
Rattus norvegicus [32]
  Result: 2
Rattus norvegicus [33]
  Result: 0
Rattus norvegicus [34]
  Result: 2
Rattus norvegicus [35]
  Result: 4

## CC[C@@H](N)Cc1ccc2c(c1)OCO2
Rattus norvegicus [36]
  Result: 1
Rattus norvegicus [37]
  Result: 3
Rattus norvegicus [38]
  Result: 1
Rattus norvegicus [39]
  Result: 3
Rattus norvegicus [40]
  Result: 0
Rattus norvegicus [34]
  Result: 2
Rattus norvegicus [41]
  Result: 4
Rattus norvegicus [42]
  Result: 3
Rattus norvegicus [43]
  Result: 2
Rattus norvegicus [44]
  Result: 2
Rattus norvegicus [45]
  Result: 2
